What all share (assay type): physicochemical
A short description of series [1]: Thermodynamic solubility assay (THESA), equilibrium solubility. To be noted: 22 °C, aqueous buffer, thermodynamic from solid; 50 mM phosphate buffer (pH 6.5), room temperature (22±2° C.). As for the experimental part:
The thermodynamic (equilibrium) solubility is the saturation solubility of a compound at the end of the dissolution process, where the dissolved compound is in equilibrium with the undissolved material in excess. The thermodynamic solubility is determined by dispensing a solid compound into a solvent. This is often deemed as the true solubility of the compound and is a critical piece of information in formulation development. The thermodynamic solubility assay (THESA) is a widely used tool for the measurement of equilibrium solubility for the later drug discovery process and is considered as a gold standard solubility assay.
Approximately 1-2 mg of each compound was added into 300 μL of 50 mM phosphate buffer (pH 6.5) at room temperature (22±2° C.). Each sample is placed in a microanalysis tube, which was sonicated for 1 h and shaken for 2 h. All suspensions were left overnight (about 16 h). On the next day, the samples were filtered into a V-bottom plate with a micronic filterplate to separate the solid material from the solution. Then, all solutions were diluted into 96 well V-bottom microplates and analyzed by UPLC-UV. The calibration line was established by UPLC using 5 different dilutions of the compound in a DMSO stock solution, made in micronic tubes (concentration approximately 1 mg/mL). Dilutions took place with DMSO. From this regression equation the solubility of the compound was determined. In cases where the drug was completely dissolved in the buffer, the value for equilibrium solubility was assumed to be higher than the value determined by UPLC and reported as such.

The nature of series [2]: Dissolution test in fed state simulated intestinal fluid (FeSSIF). To be noted: FeSSIF pH 5, room temperature. The method, then: 4.040 g of NaOH (pellets), 8.650 g of glacial acetic acid and 11.874 g of NaCl were dissolved in about 0.9 L of purified water. The pH was adjusted to 5 with either 1 N NaOH or 1 N HCl. The total volume of the mixture was made up to 1.0 L with purified water at room temperature.
To about 50 mL of blank FeSSIF buffer was added 1.120 g of SIF Powder Original (Biorelevant.com Ltd, Product code: FFF03, UK), the mixture was stirred until powder was completely dissolved. The total volume of the mixture was made up to 100 mL with blank FeSSIF buffer at room temperature.
(§1) Approximately 1-2 mg of each compound was added in excess into […] of buffer at room temperature. Each sample is placed in a microanalysis glass tube, which was sonicated for 1 h and agitated for 2 h. All suspensions were left overnight (about 16 h). On the next day, all pH values were measured with a pH-meter and the samples were filtered into a V-bottom plate with a micronic filterplate to separate the solid material from the solution. Then, all solutions were diluted into 96 well V-bottom microplates and analyzed by UPLC-UV.
(§2) The calibration line was established by UPLC using 5 different dilutions of the compound in a DMSO stock solution, made in micronic tubes (concentration approximately 1 mg/mL). Dilutions took place with DMSO (in special circumstances, with acetonitrile, or 80% HCl 0.1 N/20% acetonitrile). From this regression equation the solubility of the compound was determined. In cases where the compound was completely dissolved in the buffer, the value for equilibrium solubility was assumed to be higher than the value determined by UPLC and reported as such.

A short description of series [3]: Dissolution test in fasted state simulated intestinal fluid (FaSSIF). To be noted: FaSSIF pH 6.5, room temperature. As for the experimental part: 0.420 g of NaOH (pellets), 3.954 g of NaH2PO4 (monohydrate) and 6.186 g of NaCl were dissolved in about 0.9 L of purified water. The pH was adjusted to 6.5 with either 1 N NaOH or 1 N HCl. The total volume of the mixture was made up to 1.0 L with purified water at room temperature.
To about 50 mL of blank FaSSIF buffer was added 0.2240 g of SIF Powder Original (Biorelevant.com Ltd, Product code: FFF03, UK), the mixture was stirred until powder was completely dissolved. The total volume of the mixture was made up to 100 mL with blank FaSSIF buffer at room temperature.
as §1, §2

Series [4] in a line: Lyophilisation solubility assay (LYSA), kinetic solubility. To be noted: aqueous buffer; 0.05 M phosphate buffer (pH 6.5), from 10 mM DMSO stock after evaporation. The source says:
The solubility of a substance can be broadly defined as the maximum amount of the substance that dissolves in a specified volume of solvent. However, it is important to understand that the solubility of a compound can vary drastically depending on the condition of the solvent (e.g. temperature and pH) and the physiochemical properties of the compound (e.g. ionisation and crystallinity). These critical factors need to be considered during solubility determination in order to generate high quality solubility data that will be useful in the progression of compounds through the discovery and development stages. The kinetic solubility of a compound is the maximum solubility of the fastest precipitating species of the compound; this is often measured using a stock solution of the compound dissolved in an organic solvent, typically dimethyl sulfoxide (DMSO), as the starting material. […] The precipitate formed, which is rarely determined during the assessment, could be any combination of various possible solid states of the compound. Given the level of supersaturation that could occur when an organic solvent is diluted in water, kinetic solubility values are typically higher than the corresponding thermodynamic (equilibrium) solubility values. Solubility assays in the early discovery process often determine kinetic solubility. The lyophilisation solubility assay (LYSA) is a high throughput kinetic solubility assay for the early drug discovery process.
Samples were prepared in duplicate from 10 mM DMSO stock solution. After evaporation of DMSO with a centrifugal vacuum evaporator, the compounds were solved in 0.05 M phosphate buffer (pH 6.5), stirred for one hour and shaken for two hours. After one night, the solutions were filtered using a microtiter filter plate. Then the filtrate and its 1/10 dilution were analyzed by HPLC-UV. […] The results were in μg/mL. […] It should be noted that metastable solid phases may form during the evaporation step, and the method might therefore produce higher solubility values than assays using the stable polymorph as the starting material.

Molecules are shown by their SMILES. Converted amounts (≈) assume the structure as drawn. Some results are limits rather than exact numbers.

As usually defined, the thermodynamic solubility is solubility found after equilibrating the solid with the medium. For orientation: solubility (kinetic) means the concentration staying in solution when a stock, usually in DMSO, is diluted into the medium.

`CC[P@](C)(=O)c1nc(N)c2[nH]c(=O)n(Cc3ccc(OCCN(C)C)nc3)c2n1` [Example 16-B, 6-amino-9-[[6-[2-(dimethylamino)ethoxy]-3-pyridyl]methyl]-2-[(S)-ethyl(methyl)phosphoryl]-7H-purin-8-one] showed a solubility (thermodynamic) in series [1] of 3450 µg/mL (≈ 8.23 mM). Moreover, in series [2], the “FeSSIF” value was 1464 µg/mL. In addition, in series [3], the “FaSSIF” value is 784 µg/mL. For the same compound, the solubility (kinetic) in series [4] is over 560 µg/mL.

`CC[P@@](C)(=O)c1nc(N)c2[nH]c(=O)n(Cc3ccc(OCCN(C)C)nc3)c2n1` [Example 16-A, 6-amino-9-[[6-[2-(dimethylamino)ethoxy]-3-pyridyl]methyl]-2-[(R)-ethyl(methyl)phosphoryl]-7H-purin-8-one]: the solubility (thermodynamic) in series [1] stood at 1900 µg/mL (≈ 4.53 mM). For the same compound, the “FeSSIF” value in series [2] is 2371 µg/mL. In series [3], the “FaSSIF” value is 1799 µg/mL. The solubility (kinetic) in series [4] is over 560 µg/mL.

`CCC[P@@](C)(=O)c1nc(N)c2[nH]c(=O)n(Cc3ccc(NCCN(C)C)nc3)c2n1` [Example 18-B, 6-amino-9-[[6-[2-(dimethylamino)ethylamino]-3-pyridyl]methyl]-2-[(R)-methyl(propyl)phosphoryl]-7H-purin-8-one] showed a solubility (thermodynamic) in series [1] of 4020 µg/mL (≈ 9.3 mM). In addition, the “FeSSIF” value in series [2] was over 5000 µg/mL. In series [3], the “FaSSIF” value is over 3767 µg/mL. The solubility (kinetic) in series [4] was over 580 µg/mL.

The compound `CC[P@@](C)(=O)c1nc(N)c2[nH]c(=O)n(Cc3ccc(N4CCN(C)CC4)nc3)c2n1` [Example 13-A, 6-amino-2-[(R)-ethyl(methyl)phosphoryl]-9-[[6-(4-methylpiperazin-1-yl)-3-pyridyl]methyl]-7H-purin-8-one] returned a thermodynamic solubility in series [1] of 2380 µg/mL (≈ 5.53 mM). Moreover, in series [2], the “FeSSIF” value was 4672 µg/mL. Also, in series [3], the “FaSSIF” value was 2368 µg/mL. Further, the solubility (kinetic) in series [4] was over 530 µg/mL.

Compound `CCC[P@](C)(=O)c1nc(N)c2[nH]c(=O)n(Cc3ccc(NCCN(C)C)nc3)c2n1` [Example 18-A, 6-amino-9-[[6-[2-(dimethylamino)ethylamino]-3-pyridyl]methyl]-2-[(S)-methyl(propyl)phosphoryl]-7H-purin-8-one] yielded a solubility (thermodynamic) in series [1] of 3000 µg/mL (≈ 6.94 mM). Also, the “FeSSIF” value in series [2] is 4536 µg/mL. For the same compound, in series [3], the “FaSSIF” value is 3436 µg/mL. The solubility (kinetic) in series [4] is over 580 µg/mL.

The record behind these values is patent US20250215032A1, “PHOSPHORYLPURINONE COMPOUNDS FOR THE TREATMENT OF CANCER” (Hoffmann-La Roche Inc., priority 2022, published 2025).
